{"source": "paper PMC8355244", "about": "“A fragment-based approach identifies an allosteric pocket that impacts malate dehydrogenase activity” (Communications Biology, 2021)", "key": {"PfMDH": {"molecular_target": "T1, PfMDH (Plasmodium falciparum, UniProt Q6VVP7)", "T1 construct": "The full-length WT PfMDH gene was cloned into pETM-13; made in house; host or cells: E. coli Rosetta 2 (DE3) pLysS", "T1 sequence (Q6VVP7 entry or part of it)": "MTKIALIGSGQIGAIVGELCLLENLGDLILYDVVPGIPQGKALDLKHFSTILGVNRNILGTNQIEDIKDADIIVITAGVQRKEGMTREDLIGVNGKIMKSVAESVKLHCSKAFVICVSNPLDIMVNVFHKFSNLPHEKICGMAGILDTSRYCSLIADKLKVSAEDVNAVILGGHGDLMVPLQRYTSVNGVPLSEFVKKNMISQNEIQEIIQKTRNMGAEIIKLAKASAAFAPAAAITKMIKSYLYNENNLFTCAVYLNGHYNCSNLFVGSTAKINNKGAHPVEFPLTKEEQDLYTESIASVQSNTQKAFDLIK", "assay": "Thermal shift assay (TSA)", "format": "binding", "conditions": "for TSA melting curve raw signal: triplicate columns; for TSA melting curve raw fluorescence signal: three replicate columns", "procedure,_shortened": "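10 μM PfMDH with 1 mM compound in 100 mM Na–phosphate pH 7.4, 400 mM NaCl, 10× Sypro Orange; 1% DMSO controls. Melting inflection points taken as Tm; shifts >1 °C read as stabilization, negative shifts as destabilization.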"}, "[1]": {"assay": "Precipitation / turbidity of compound in assay buffer (600 nm)", "format": "physicochemical", "conditions": "aqueous assay buffer", "protocol": "1.3 µL of derivatives of 4-phenylthiazol-2-amine in 100% DMSO were mixed with 237.7 µL of a mastermix of WT PfMDH previously incubated with NAD+. The final compound concentration used in this screening was 500 µM in the presence of 0.5% (v/v) DMSO. The microplate was sealed with silver foil for 1-h incubation at 25–35 °C. Finally, reactions in both the samples and control wells were started upon the addition of 13.0 µL of 5 mM malate). At the end of the experiments, the reaction of the plate was spectrophotometrically assayed at 600 nm in order to identify turbidity due to the low solubility of the compound. All measurements were performed in duplicate."}}, "note": "“And” between values parts separate entries of the source, which are not always exact repeats. Equal values may be shown once.", "data": [{"smiles": "Nc1nc(-c2ccccc2)cs1", "note": "[4PA, 4-phenylthiazol-2-amine]", "values": [{"measurement": "ΔTm at 1000 µM", "setting": "PfMDH; 1 mM compound vs DMSO control", "result": -3, "unit": "°C"}, {"measurement": "Tm", "setting": "PfMDH; 1 mM compound, 10 μM PfMDH, DMSO control Tm 58", "result": "55.0 ± 0.2", "unit": "°C"}, {"measurement": "TSA melting curve raw signal", "setting": "PfMDH; Temperature 25", "result": "3101.562 and 3333.877 and 3419.875"}, {"measurement": "TSA melting curve raw signal", "setting": "PfMDH; Temperature 28.5", "result": "2982.864 and 3197.483 and 3331.476"}, {"measurement": "TSA melting curve raw signal", "setting": "PfMDH; Temperature 29", "result": "2965.133 and 3176.088 and 3316.215"}, {"measurement": "TSA melting curve raw signal", "setting": "PfMDH; Temperature 29.5", "result": "2946.457 and 3153.433 and 3298.876"}, {"measurement": "TSA melting curve raw signal", "setting": "PfMDH; Temperature 30", "result": "2926.726 and 3129.047 and 3278.959"}, {"measurement": "TSA melting curve raw signal", "setting": "PfMDH; Temperature 30.5", "result": "2906.089 and 3103.354 and 3257.233"}, {"measurement": "TSA melting curve raw signal", "setting": "PfMDH; Temperature 31", "result": "2885.408 and 3077.356 and 3234.634"}, {"measurement": "TSA melting curve raw signal", "setting": "PfMDH; Temperature 31.5", "result": "2865.452 and 3051.863 and 3212.437"}, {"measurement": "TSA melting curve raw signal", "setting": "PfMDH; Temperature 32", "result": "2847.461 and 3027.963 and 3192.183"}, {"measurement": "TSA melting curve raw signal", "setting": "PfMDH; Temperature 32.5", "result": "2831.845 and 3007.388 and 3175.246"}, {"measurement": "TSA melting curve raw signal", "setting": "PfMDH; Temperature 33", "result": "2819.491 and 2990.613 and 3162.466"}, {"measurement": "TSA melting curve raw signal", "setting": "PfMDH; Temperature 33.5", "result": "2810.837 and 2978.017 and 3154.456"}, {"measurement": "TSA melting curve raw signal", "setting": "PfMDH; Temperature 34", "result": "2806.172 and 2970.163 and 3151.8"}, {"measurement": "TSA melting curve raw signal", "setting": "PfMDH; Temperature 34.5", "result": "2805.279 and 2966.904 and 3154.834"}, {"measurement": "TSA melting curve raw signal", "setting": "PfMDH; Temperature 35", "result": "2808.767 and 2967.899 and 3163.624"}, {"measurement": "TSA melting curve raw signal", "setting": "PfMDH; Temperature 35.5", "result": "2816.443 and 2973.639 and 3178.538"}, {"measurement": "TSA melting curve raw signal", "setting": "PfMDH; Temperature 36", "result": "2828.317 and 2984.069 and 3199.383"}, {"measurement": "TSA melting curve raw signal", "setting": "PfMDH; Temperature 36.5", "result": "2844.427 and 2998.946 and 3225.589"}, {"measurement": "TSA melting curve raw signal", "setting": "PfMDH; Temperature 37", "result": "2864.693 and 3018.271 and 3256.517"}, {"measurement": "TSA melting curve raw signal", "setting": "PfMDH; Temperature 37.5", "result": "2888.742 and 3042.246 and 3291.976"}, {"measurement": "TSA melting curve raw signal", "setting": "PfMDH; Temperature 38", "result": "2916.555 and 3070.379 and 3330.731"}, {"measurement": "TSA melting curve raw signal", "setting": "PfMDH; Temperature 38.5", "result": "2948.507 and 3102.617 and 3372.906"}, {"measurement": "TSA melting curve raw signal", "setting": "PfMDH; Temperature 39", "result": "2984.548 and 3139.232 and 3418.523"}, {"measurement": "TSA melting curve raw signal", "setting": "PfMDH; Temperature 39.5", "result": "3025.238 and 3180.62 and 3468.123"}, {"measurement": "TSA melting curve raw signal", "setting": "PfMDH; Temperature 40", "result": "3070.846 and 3226.341 and 3521.558"}, {"measurement": "TSA melting curve raw signal", "setting": "PfMDH; Temperature 40.5", "result": "3121.424 and 3276.836 and 3579.878"}, {"measurement": "TSA melting curve raw signal", "setting": "PfMDH; Temperature 41", "result": "3176.735 and 3332.701 and 3643.235"}, {"measurement": "TSA melting curve raw signal", "setting": "PfMDH; Temperature 41.5", "result": "3236.92 and 3394.066 and 3712.066"}, {"measurement": "TSA melting curve raw signal", "setting": "PfMDH; Temperature 42", "result": "3301.878 and 3461.348 and 3786.574"}, {"measurement": "TSA melting curve raw signal", "setting": "PfMDH; Temperature 42.5", "result": "3371.782 and 3535.427 and 3867.61"}, {"measurement": "TSA melting curve raw signal", "setting": "PfMDH; Temperature 43", "result": "3446.967 and 3616.442 and 3955.318"}, {"measurement": "TSA melting curve raw signal", "setting": "PfMDH; Temperature 43.5", "result": "3527.686 and 3704.688 and 4050.074"}, {"measurement": "TSA melting curve raw signal", "setting": "PfMDH; Temperature 44", "result": "3614.17 and 3800.745 and 4152.165"}, {"measurement": "TSA melting curve raw signal", "setting": "PfMDH; Temperature 44.5", "result": 3706.596}, {"measurement": "TSA melting curve raw fluorescence signal", "setting": "PfMDH; Temperature 73.5", "result": "6991.444 and 7655.524 and 7881.758"}, {"measurement": "TSA melting curve raw fluorescence signal", "setting": "PfMDH; Temperature 74", "result": "6939.612 and 7600.258 and 7826.265"}, {"measurement": "TSA melting curve raw fluorescence signal", "setting": "PfMDH; Temperature 74.5", "result": "6888.076 and 7546.666 and 7771.787"}, {"measurement": "TSA melting curve raw fluorescence signal", "setting": "PfMDH; Temperature 75", "result": "6836.407 and 7493.684 and 7717.224"}, {"measurement": "TSA melting curve raw fluorescence signal", "setting": "PfMDH; Temperature 75.5", "result": "6784.183 and 7441.52 and 7662.752"}, {"measurement": "TSA melting curve raw fluorescence signal", "setting": "PfMDH; Temperature 76", "result": "6731.402 and 7389.749 and 7608.451"}, {"measurement": "TSA melting curve raw fluorescence signal", "setting": "PfMDH; Temperature 76.5", "result": "6679.444 and 7337.884 and 7553.49"}, {"measurement": "TSA melting curve raw fluorescence signal", "setting": "PfMDH; Temperature 77", "result": "6628.226 and 7285.068 and 7497.822"}, {"measurement": "TSA melting curve raw fluorescence signal", "setting": "PfMDH; Temperature 77.5", "result": "6578.245 and 7231.451 and 7441.978"}, {"measurement": "TSA melting curve raw fluorescence signal", "setting": "PfMDH; Temperature 78", "result": "6529.803 and 7176.607 and 7385.969"}, {"measurement": "TSA melting curve raw fluorescence signal", "setting": "PfMDH; Temperature 78.5", "result": "6482.748 and 7121.157 and 7329.423"}, {"measurement": "TSA melting curve raw fluorescence signal", "setting": "PfMDH; Temperature 79", "result": "6436.76 and 7065.937 and 7274.048"}, {"measurement": "TSA melting curve raw fluorescence signal", "setting": "PfMDH; Temperature 79.5", "result": "6391.899 and 7012.239 and 7219.892"}, {"measurement": "TSA melting curve raw fluorescence signal", "setting": "PfMDH; Temperature 80", "result": "6347.542 and 6960.087 and 7166.546"}, {"measurement": "TSA melting curve raw fluorescence signal", "setting": "PfMDH; Temperature 80.5", "result": "6302.907 and 6909.426 and 7113.859"}, {"measurement": "TSA melting curve raw fluorescence signal", "setting": "PfMDH; Temperature 81", "result": "6257.989 and 6859.788 and 7062.389"}, {"measurement": "TSA melting curve raw fluorescence signal", "setting": "PfMDH; Temperature 81.5", "result": "6211.993 and 6810.814 and 7010.574"}, {"measurement": "TSA melting curve raw fluorescence signal", "setting": "PfMDH; Temperature 82", "result": "6164.6 and 6762.251 and 6958.299"}, {"measurement": "TSA melting curve raw fluorescence signal", "setting": "PfMDH; Temperature 82.5", "result": "6116.092 and 6712.951 and 6905.437"}, {"measurement": "TSA melting curve raw fluorescence signal", "setting": "PfMDH; Temperature 83", "result": "6067.721 and 6663.14 and 6852.004"}, {"measurement": "TSA melting curve raw fluorescence signal", "setting": "PfMDH; Temperature 83.5", "result": "6019.674 and 6612.874 and 6798.049"}, {"measurement": "TSA melting curve raw fluorescence signal", "setting": "PfMDH; Temperature 84", "result": "5972.405 and 6562.27 and 6744.245"}, {"measurement": "TSA melting curve raw fluorescence signal", "setting": "PfMDH; Temperature 84.5", "result": "5926.625 and 6510.347 and 6690.517"}, {"measurement": "TSA melting curve raw fluorescence signal", "setting": "PfMDH; Temperature 85", "result": "5882.391 and 6459.307 and 6637.567"}, {"measurement": "TSA melting curve raw fluorescence signal", "setting": "PfMDH; Temperature 85.5", "result": "5838.459 and 6409.022 and 6584.837"}, {"measurement": "TSA melting curve raw fluorescence signal", "setting": "PfMDH; Temperature 86", "result": "5794.143 and 6359.5 and 6531.78"}, {"measurement": "TSA melting curve raw fluorescence signal", "setting": "PfMDH; Temperature 86.5", "result": "5749.377 and 6310.687 and 6478.281"}, {"measurement": "TSA melting curve raw fluorescence signal", "setting": "PfMDH; Temperature 87", "result": "5703.739 and 6263.164 and 6424.447"}, {"measurement": "TSA melting curve raw fluorescence signal", "setting": "PfMDH; Temperature 87.5", "result": "5656.691 and 6215.001 and 6369.065"}, {"measurement": "TSA melting curve raw fluorescence signal", "setting": "PfMDH; Temperature 88", "result": "5609.372 and 6165.882 and 6313.087"}, {"measurement": "TSA melting curve raw fluorescence signal", "setting": "PfMDH; Temperature 88.5", "result": "5562.587 and 6115.522 and 6256.819"}, {"measurement": "TSA melting curve raw fluorescence signal", "setting": "PfMDH; Temperature 89", "result": "5515.924 and 6063.705 and 6199.979"}, {"measurement": "TSA melting curve raw fluorescence signal", "setting": "PfMDH; Temperature 89.5", "result": "5468.97 and 6010.228 and 6142.345"}, {"measurement": "TSA melting curve raw fluorescence signal", "setting": "PfMDH; Temperature 90", "result": 5422.458}, {"measurement": "solubility (in words)", "setting": "[1]", "result": "slightly more soluble than 4DT"}]}]}
